Patent publication US20090048301A1 (IMCLONE SYSTEMS INCORPORATED, priority 2003, published 2009)

Key:
tumor vasculature = conditions: Cancer Research 59, 1626 (1999); cited from earlier work
[1] = test system: A431, human epidermoid carcinoma cells; assay: Cell cycle analysis (FACS), mitotic arrest in G2/M; assay type: cell-based; conditions: Homo sapiens, A-431, 24 h, read-out: FACS Assay: concentration required to achieve inhibition in FACS assay
Method in brief: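 A431 cells, 500,000/well at treatment, exposed to compounds at 0.01–1 μM final (0.1% DMSO) for 24 h. Ethanol-fixed cells RNase-treated (1 μg/ml, 37° C., 15 min), stained with propidium iodide (50 μg/ml, 30 min, RT). DNA ploidy by flow cytometry; mitotic arrest scored as G2/M accumulation.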

[2] = test system: A431 human cancer cell line; assay: Sulphorhodamine B (SRB) growth inhibition assay; assay type: cell-based; conditions: A-431, A431 cells, 48 hours, read-out: SRB Assay: μM required to inhibit tumor cell growth by 50% (GI50)
Method in brief: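 A431 cells were seeded at 10,000 cells/well and preincubated 24 h, then exposed for 48 h at 37 °C, 5% CO2 to five log doses from 100 μM to 0.01 μM (final). After TCA fixation, SRB-stained protein was read at 515 nm. Percent growth was set against time-zero and DMSO control OD, and GI50 was taken at the 50% intercept.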

bovine tubulin = assay: In vitro tubulin polymerization assay (turbidity at 340 nm); assay type: biochemical; conditions: 10 μM compound, 30 minute data point, vs 1% DMSO control
Method in brief: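 Percent inhibition derives from turbidity (340 nm) at 30 min relative to 1% DMSO controls, read every minute at 37° C. Polymerization mix: 3 mg/ml bovine tubulin, <3% MAPs, in PIPES pH 7 G-PEM with 1 mM GTP, 1 mM MgCl2, 5% glycerol; enhancers also detectable.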

xenograft models = conditions: Cancer Research 62, 3113, 2002; cited from earlier work
MDR cells = conditions: Cancer Research 61, 392, 2001; cited from earlier work
[3] = Cancer Research 61, 392, 2001; cited from earlier work

| GI50 [2] | Structure (SMILES) | minimal effective concentration [1] | Tubulin Assay: percent inhibition at 10 μM based on 30 minute data (bovine tubulin) | also measured |
| --- | --- | --- | --- | --- |
|  | COc1ccc(/C=C\c2cc(OC)c(OC)c(OC)c2)cc1OP(=O)(O)O [Combretastatin A-4 phosphate] |  |  | effect on tumor vasculature and necrosis in mouse tumor models (tumor vasculature): change endothelial cell morphology, shut down tumor vasculature, and induce tumor necrosis |
| 0.01 µM | O=C1CCCN1CCCNc1ncccc1-c1nnc(Nc2ccc3c(c2)OCCO3)o1 [Compound 192, 1-(3-{3-[5-(2,3-Dihydro-benzo[1,4]dioxin-6-ylamino)-[1,3,4]oxadiazol-2-yl]-pyridin-2-ylamino}-propyl)-pyrrolidin-2-one] | 0.1 µM | 85% |  |
| 0.01 µM | COc1cc(Nc2ncccc2-c2nnc(Nc3ccc4c(c3)OCCO4)o2)cc(OC)c1 [Compound 193, {3-[5-(2,3-Dihydro-benzo[1,4]dioxin-6-ylamino)-[1,3,4]oxadiazol-2-yl]-pyridin-2-yl}-(3,5-dimethoxy-phenyl)-amine] | 0.01 µM | 69% |  |
| 10 µM | c1ccc(-c2nnc(Nc3ccc4c(c3)OCCO4)o2)c(NCc2ccncc2)c1 [Compound 215, (2,3-Dihydro-benzo[1,4]dioxin-6-yl)-(5-{2-[(pyridin-4-ylmethyl)-amino]-phenyl}-[1,3,4]oxadiazol-2-yl)-amine] | 0.01 µM | 100% |  |
| 1.5 µM | c1ccc(-c2nnc(Nc3ccc4c(c3)OCCO4)o2)c(NCc2cn[nH]c2)c1 [Compound 223, (2,3-Dihydro-benzo[1,4]dioxin-6-yl)-(5-{2-[(1H-pyrazol-4-ylmethyl)-amino]-phenyl}-[1,3,4]oxadiazol-2-yl)-amine] | 0.1 µM | 84% |  |
| 2 µM | COc1cccc(Nc2nnc(-c3ccccc3NCc3ccncc3)o2)c1 [Compound 228, (3-Methoxy-phenyl)-(5-{2-[(pyridin-4-ylmethyl)-amino]-phenyl}-[1,3,4]oxadiazol-2-yl)-amine] | 10 µM | 57% |  |
|  | COc1ccc2[nH]c(C(=O)c3ccccc3)cc2c1 [Compound D64131] |  |  | efficacy in xenograft models (xenograft models): efficacious in xenograft models; oral activity (xenograft models): orally active; toxicity (xenograft models): no signs of toxicity |
|  | O=C(Nc1ccncc1)C(=O)c1cn(Cc2ccc(Cl)cc2)c2ccccc12 [Compound D-24851] |  |  | efficacy toward MDR cells (MDR cells): shows efficacy toward MDR cells; antitumor activity in vivo [3]: exert antitumor activity in vivo; neurotoxicity [3]: lacks neurotoxicity |
